Test systems include HOP-18; SNB-78; DMS-273; DMS-114; XF498; M19-MEL; DLD-1; LXFL 529; RXF 631.
What all share (test): NCI tumour cell line growth inhibition, 48 h

24 compounds from ChEMBL document CHEMBL1201862, “PubChem BioAssay data set” (2004) can be followed below.

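Tested at 5 concentrations; 48 h exposure; 96-well plates; endpoints linearly interpolated, else capped at highest concentration. GI50 marks 50% less growth.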 Calls of active or inactive are those of the source. Cut-off read from the data, not from the text of the source: active = GI50 up to about 1.1 µM and inactive = higher.

On to `CN(C)CCCn1c2c3ccccc3ccc2c2oc(=O)c3ccccc3c21`, for which the GI50 in the test on HOP-18 was 16.6 µM (inactive); in the test on SNB-78 it was 13.6 µM (inactive); in the test on DMS-273, 1.49 µM (inactive); in the test with DMS-114, 1.77 µM (inactive); with XF498 it was 3.85 µM (inactive); with M19-MEL, 3.13 µM (inactive). The GI50 in the test on DLD-1 is 1.47 µM (inactive); in the test with LXFL 529, 3.56 µM (inactive).
`O=C1NC(=S)NC(=O)C1=C(O)Nc1ccccc1`: the GI50 in the test on HOP-18 was 42.4 µM (inactive); in the test on SNB-78, 44.1 µM (inactive); in the test on DMS-273, 28.7 µM (inactive); with DMS-114, 25.8 µM (inactive); with M19-MEL it was 37.2 µM (inactive); with DLD-1, 36.6 µM (inactive).
Regarding `O=C1/C(=C\c2ccccc2)CN(C(=O)CCN2CCCCC2)C/C1=C/c1ccccc1`, the GI50 in the test on HOP-18 is 3.03 µM (inactive); in the test on SNB-78 it was 2.54 µM (inactive); in the test on DMS-273, 1.44 µM (inactive); in the test on DMS-114 it was 1.23 µM (inactive); in the test with XF498 it was 1.73 µM (inactive); with M19-MEL, 0.658 µM (active). For the same compound, the GI50 is 1.19 µM (inactive) in the test with DLD-1, 1.32 µM (inactive) in the test with LXFL 529 and 1.47 µM (inactive) in the test with RXF 631.
For the compound `Cn1c(-c2ccccc2)cc(-c2cccs2)c1-c1cccs1`, the GI50 was > 100 µM (inactive) in the test on HOP-18; > 100 µM (inactive) in the test with SNB-78; > 100 µM (inactive) with DMS-273; > 52 µM (inactive) in the test with DMS-114; > 100 µM (inactive) in the test with XF498; 83.2 µM (inactive) with M19-MEL. In addition, the GI50 in the test on DLD-1 was > 100 µM (inactive).
`CCN(C1=CC(=O)NC2CCCCN12)c1ccccc1` (configuration not stated): the GI50 in the test on HOP-18, in the test with SNB-78, with DMS-273, in the test with DMS-114, with XF498 and in the test with M19-MEL was > 100 µM (inactive) throughout. Moreover, the GI50 with DLD-1, with LXFL 529 and in the test with RXF 631 was > 100 µM (inactive) in each case.
Consider `COc1ccc(NC(=O)/C(Cc2cc(=O)oc3cc(O)ccc23)=N\NC(C)(C)C)c(OC)c1`, for which the GI50 in the test on SNB-78, in the test on XF498, in the test with M19-MEL and with LXFL 529 was > 100 µM (inactive) throughout.
In the case of `CC12CCCCC1(C)C2Sc1ccccc1` (configuration not stated), the GI50 in the test on HOP-18 is 63.1 µM (inactive); with SNB-78 it was > 44.3 µM (inactive); in the test with DMS-273, 47.2 µM (inactive); in the test with DMS-114 it was 30.7 µM (inactive); with XF498, 27.3 µM (inactive); in the test with M19-MEL, 35.9 µM (inactive). Also, the GI50 is 61.2 µM (inactive) in the test with DLD-1, 63.8 µM (inactive) in the test on LXFL 529 and 51.5 µM (inactive) in the test with RXF 631.
In the case of `O=C1c2cccc(NCCNCCO)c2C(=O)c2cccc(NCCNCCO)c21`, the GI50 was 2.15 µM (inactive) in the test on HOP-18; 1.52 µM (inactive) in the test on SNB-78; 2.91 µM (inactive) with DMS-273; 0.368 µM (active) with DMS-114; 0.556 µM (active) in the test with XF498; 3.18 µM (inactive) in the test on DLD-1. The GI50 is 0.643 µM (active) in the test with LXFL 529 and 3.13 µM (inactive) in the test with RXF 631.
For `COc1ccc(NC(=O)C(=O)C2CNC(=O)NC2=O)c(OC)c1` (configuration not stated), the GI50 in the test on HOP-18, in the test with SNB-78, in the test on DMS-273, with DMS-114, in the test on XF498 and with DLD-1 was > 100 µM (inactive) each time. In addition, in the test on LXFL 529, the GI50 is > 100 µM (inactive).
Regarding `CCOc1ccccc1NC(=O)C1=C(C)NC(C)=C(C(=O)Nc2ccccc2OCC)C1c1ccc([N+](=O)[O-])cc1`, the GI50 with HOP-18 was > 100 µM (inactive); in the test with SNB-78, > 100 µM (inactive); with DMS-273 it was 71.4 µM (inactive); in the test with DMS-114, 65.9 µM (inactive); with M19-MEL, > 100 µM (inactive); in the test on DLD-1, > 100 µM (inactive). The values for the GI50 with LXFL 529 and in the test with RXF 631 were 70.5 µM (inactive) and > 100 µM (inactive), respectively.
Turning to `COc1c(OC(C)=O)ccc(/C=C2\N=C(C)OC2=O)c1[N+](=O)[O-]`, the GI50 in the test on HOP-18, with SNB-78, in the test with DMS-273, in the test on M19-MEL, with DLD-1 and with LXFL 529 was > 100 µM (inactive) in each case. In the test on RXF 631, the GI50 is > 100 µM (inactive).
With `C(=N\CC/N=C/c1cccc2ccccc12)/c1cccc2ccccc12`, the GI50 in the test on HOP-18, in the test with SNB-78, with DMS-273, with DMS-114, in the test on XF498 and in the test with M19-MEL was > 100 µM (inactive) each time. Further, the GI50 with DLD-1 and in the test with LXFL 529 was > 100 µM (inactive) throughout.
In the case of `Cc1ccc(C(=O)c2nnc(C(=O)c3ccc(C)cc3)nn2)cc1`, the GI50 in the test with HOP-18 is 33.4 µM (inactive); in the test on SNB-78, > 100 µM (inactive); in the test on DMS-273, 39.4 µM (inactive); in the test on M19-MEL, 26.1 µM (inactive); in the test with DLD-1, 43.2 µM (inactive); in the test on LXFL 529 it was 53.2 µM (inactive).
Regarding `CCC(C(=O)O)c1ccc(OCc2ccccc2)cc1` (configuration not stated), the GI50 in the test on SNB-78, in the test with DMS-273, with DMS-114, with XF498, in the test on DLD-1 and in the test with LXFL 529 was > 100 µM (inactive) each time.
On to `Cc1ccc(NC(=O)C(=O)CC(=O)c2c(C)[n+]([O-])c3ccccc3[n+]2[O-])cc1C`, for which the GI50 in the test on HOP-18 is 48.9 µM (inactive); in the test on SNB-78 it was > 100 µM (inactive); with DMS-273 it was > 100 µM (inactive); in the test with M19-MEL, 91.2 µM (inactive); with LXFL 529, > 100 µM (inactive).
With `c1ccc(C2OCCO2)c(OCCOc2cc(OCCOc3ccccc3C3OCCO3)c(OCCOc3ccccc3C3OCCO3)cc2OCCOc2ccccc2C2OCCO2)c1`, the GI50 is > 100 µM (inactive) in the test with HOP-18; 5.46 µM (inactive) in the test with SNB-78; 15.3 µM (inactive) with DMS-273; 11.8 µM (inactive) in the test on DMS-114; > 100 µM (inactive) in the test with M19-MEL; > 100 µM (inactive) in the test with DLD-1. For the same compound, the GI50 with LXFL 529 is 29.2 µM (inactive).
For the compound `Cc1cc2ncn(-c3nc4ccccc4nc3C(C#N)S(C)(=O)=O)c2cc1C` (configuration not stated), the GI50 with SNB-78, with DMS-273, with DMS-114, with XF498, in the test with M19-MEL and in the test with DLD-1 was > 100 µM (inactive) throughout. Also, the GI50 in the test with LXFL 529 is > 100 µM (inactive).
`CCN(CC)CCCCC1CCN(CC(=O)N2c3cc(Cl)ccc3NC(=O)CC2C)CC1` (configuration not stated): the GI50 in the test on HOP-18, in the test with DMS-273, with M19-MEL, in the test with DLD-1 and in the test with LXFL 529 was > 100 µM (inactive) throughout.
On to `CCCCNC(=O)C1C(=O)N(CCCC)C(=O)/C1=N\N` (configuration not stated), for which the GI50 in the test with HOP-18, in the test on SNB-78, in the test with DMS-273, with DMS-114, with XF498 and with M19-MEL was > 100 µM (inactive) each time. For the same compound, the GI50 with LXFL 529 and with RXF 631 was > 100 µM (inactive) throughout.
As for `COC(=O)C1(O)CC(=O)CCC1c1ccc(OC)cc1` (configuration not stated), the GI50 with HOP-18, in the test with SNB-78, with DMS-273, with DMS-114, in the test with DLD-1 and with RXF 631 was > 100 µM (inactive) in each case.
Turning to `O=C(O)/C(=C/c1c(O)ccc2ccccc12)c1csc(-c2nc(/C(=C\c3c(O)ccc4ccccc34)C(=O)O)cs2)n1`, the GI50 in the test on SNB-78 was 13.6 µM (inactive); in the test on DMS-114, 10 µM (inactive); with M19-MEL, 6.17 µM (inactive); in the test on DLD-1 it was 12 µM (inactive); in the test on LXFL 529 it was 13.6 µM (inactive).
For `COc1ccc2[nH]c(=O)cc(C)c2c1[N+](=O)[O-]`, the GI50 in the test on SNB-78 was > 100 µM (inactive); in the test on DMS-273, > 100 µM (inactive); in the test with DMS-114 it was > 100 µM (inactive); in the test on XF498, > 100 µM (inactive); in the test on M19-MEL it was > 100 µM (inactive); in the test with DLD-1 it was 84.1 µM (inactive). Moreover, the GI50 with LXFL 529 and in the test with RXF 631 was > 100 µM (inactive) throughout.
With `C=CCC1OC(C)(C)Oc2ccc(OCOCCOC)cc21` (configuration not stated), the GI50 with DMS-114 and in the test on LXFL 529 was > 100 µM (inactive) in each case.
Take `Cc1ccccc1NC(=O)C1C(=O)N(c2ccccc2C)C(=O)/C1=N\NC(N)=O` (configuration not stated): the GI50 with HOP-18 was 92.3 µM (inactive); with SNB-78, > 100 µM (inactive); in the test on DMS-273, > 100 µM (inactive); in the test on DMS-114, > 100 µM (inactive); in the test on M19-MEL, > 100 µM (inactive); in the test on DLD-1 it was > 100 µM (inactive). The GI50 with LXFL 529 is > 100 µM (inactive).
